Measured values published in patent US20110039763A1, “TARGETED ANTIMICROBIAL MOIETIES” (C3 JIAN, INC., priority 2009, published 2011).
Entries after “also recorded” stand apart in the source; their conditions may differ.

How the values were obtained:
microorganisms [1] = test: Targeting peptide binding to target microorganisms (Tables 3, 10, 12); conditions: microorganism(s) the targeting peptide binds; binding in aqueous buffers varied with peptide solubility, preferably 1x PBS
microorganisms [2] = test: Morphology, biofilm and growth disrupting peptides (Table 5); type: cell-based; design: key: A: Peptide aggregates; B: Less hyphal formation; Clumps; Diffuse clumps and small polyps; F: Diffuse growth; H: Thin; I: Growth inhibition; Microcolony formation; Rippled; Small polyps; Thick; W: Halo formation on top, microlonies on bottom
Source text: In certain embodiments peptides that induce alterations in phenotype or other biological activities can also be used as antimicrobial effector moieties.

microorganisms [3] = test: Peptide activities: targeting/binding, antimicrobial, growth or phenotype altering (Tables 7, 8); type: cell-based; conditions: peptides having multiple activities

Substance	Target(s) (microorganisms [1])	Organism, effect (microorganisms [2]; E. coli)	Organism, effect (microorganisms [2]; M. luteus)	Organism, effect (microorganisms [2]; MRSA)	Organism, effect (microorganisms [2]; S. epidermidis)	Organism, effect (microorganisms [2]; S. mutans)	Organism, effect (microorganisms [2]; S. pneumoniae)	Activities (microorganisms [3])	Organism, effect (microorganisms [2]; P. gingivalis)	Organism, effect (microorganisms [2]; F. nucleatum)
PF-776: peptide having multiple activities (VSILLYLSATIILPNVLRLLVARAIIVRV; Peptide with targeting and/or antimicrobial activity)	S. epidermidis and M. luteus and P. mirabilis and C. albicans and MRSA and S. pneumoniae and E. faecalis	E. coli (C)	M. luteus (C)	MRSA (D)	S. epidermidis (D)	S. mutans (D)	S. pneumoniae (C)	G B	–	–
PF-C052: peptide having multiple activities (SRFRNGV; Peptide with targeting and/or antimicrobial activity)	A. naeslundii; also recorded: F. nucleatum; also recorded: S. mutans	–	–	–	–	–	–	G B	P. gingivalis (H)	–
PF-C055: peptide having multiple activities (YNLSIYIYFLHTITIAGLITLPFII; Peptide with targeting and/or antimicrobial activity)	A. naeslundii; also recorded: F. nucleatum; also recorded: P. gingivalis; also recorded: S. mutans	–	–	–	–	S. mutans (I)	–	G B	–	F. nucleatum (T)
PF-C057: peptide having multiple activities (YFWWYWVQDCIPYKNNEVWLELSNNMK; Peptide with targeting and/or antimicrobial activity)	A. naeslundii; also recorded: F. nucleatum; also recorded: P. gingivalis; also recorded: S. mutans	–	–	–	–	S. mutans (I)	–	G B	–	–
PF-C062: peptide having multiple activities (PLARATEVVATLFIICSLLLYLTR; Peptide with targeting and/or antimicrobial activity)	A. naeslundii; also recorded: F. nucleatum; also recorded: P. gingivalis; also recorded: S. mutans; also recorded: T. denticola	–	–	–	–	S. mutans (I)	–	G B	–	F. nucleatum (T)
PF-C064: peptide having multiple activities (DEEALEMGANLYAQFAIDFLNSKK; Peptide with targeting and/or antimicrobial activity)	A. naeslundii; also recorded: F. nucleatum; also recorded: P. gingivalis; also recorded: S. mutans; also recorded: T. denticola	–	–	–	–	–	–	G B	–	F. nucleatum (T)
PF-C069: peptide having multiple activities (NALMLREMQLAKNIKVEVTDVLSNKKYC; Peptide with targeting and/or antimicrobial activity)	A. naeslundii; also recorded: F. nucleatum; also recorded: P. gingivalis; also recorded: S. mutans; also recorded: T. denticola	–	–	–	–	–	–	G B	–	F. nucleatum (T)
PF-C071: peptide having multiple activities (QVIVKIL; Peptide with targeting and/or antimicrobial activity)	A. naeslundii; also recorded: F. nucleatum; also recorded: S. mutans	–	–	–	–	–	–	G B	–	F. nucleatum (T)
PF-C075: peptide having multiple activities (KALVISVFAIVFSIIFVKFFYWRDKK; Peptide with targeting and/or antimicrobial activity)	A. naeslundii; also recorded: F. nucleatum; also recorded: P. gingivalis; also recorded: S. mutans; also recorded: T. denticola	–	–	–	–	S. mutans (F)	–	G B	P. gingivalis (R)	F. nucleatum (T)
PF-C084: peptide having multiple activities (FFSVIFLFGLNYLICNSPLFNILR; Peptide with targeting and/or antimicrobial activity)	A. naeslundii; also recorded: F. nucleatum; also recorded: P. gingivalis; also recorded: S. mutans	–	–	–	–	S. mutans (F)	–	G B	P. gingivalis (R)	F. nucleatum (T)
PF-C088: peptide having multiple activities (DIANNILNSVSERLIIA; Peptide with targeting and/or antimicrobial activity)	A. naeslundii; also recorded: F. nucleatum; also recorded: P. gingivalis; also recorded: S. mutans; also recorded: T. denticola	–	–	–	–	S. mutans (I)	–	G B	P. gingivalis (R)	F. nucleatum (H)
PF-C131: peptide having multiple activities (chain 1 QWIVAKREIRMHIYCHISVIHVIIFFG; chain 2 QWIVAKREIRMHIYCHISVIHVIIFFG; Peptide with targeting and/or antimicrobial activity)	A. naeslundii; also recorded: F. nucleatum; also recorded: P. gingivalis; also recorded: S. mutans	–	–	–	–	S. mutans (F)	–	G B	–	F. nucleatum (T)
PF-C136: peptide having multiple activities (chain 1 LILSYQASVYPLFAYLCQQKDY; chain 2 LILSYQASVYPLFAYLCQQKDY; Peptide with targeting and/or antimicrobial activity)	A. naeslundii; also recorded: F. nucleatum; also recorded: P. gingivalis; also recorded: S. mutans; also recorded: T. denticola	–	–	–	–	–	–	G B	P. gingivalis (R)	F. nucleatum (C)
PF-C137: peptide having multiple activities (chain 1 QRMYWFKRGFETGDFSAGDTFAELK; chain 2 QRMYWFKRGFETGDFSAGDTFAELK; Peptide with targeting and/or antimicrobial activity)	A. naeslundii; also recorded: F. nucleatum; also recorded: P. gingivalis; also recorded: S. mutans	–	–	–	–	–	–	G B	–	F. nucleatum (T)
PF-C139: peptide having multiple activities (chain 1 LLASHPERLSLGVFFVYRVLHLLLENT; chain 2 LLASHPERLSLGVFFVYRVLHLLLENT; Peptide with targeting and/or antimicrobial activity)	A. naeslundii; also recorded: F. nucleatum; also recorded: P. gingivalis; also recorded: S. mutans; also recorded: T. denticola	–	–	–	–	S. mutans (F)	–	G B	–	–
PF-C142: peptide having multiple activities (chain 1 DFPPLSFFRRRFHAYTAPIDNFFGANPF; chain 2 DFPPLSFFRRRFHAYTAPIDNFFGANPF; Peptide with targeting and/or antimicrobial activity)	A. naeslundii; also recorded: F. nucleatum; also recorded: P. gingivalis; also recorded: S. mutans; also recorded: T. denticola	–	–	–	–	S. mutans (I)	–	G B	–	–
PF-C143: peptide having multiple activities (chain 1 VVFGGGDRLV; chain 2 VVFGGGDRLV; Peptide with targeting and/or antimicrobial activity)	A. naeslundii; also recorded: F. nucleatum; also recorded: P. gingivalis; also recorded: S. mutans; also recorded: T. denticola	–	–	–	–	–	–	G B	–	F. nucleatum (C)
